Among the data in ChEMBL document CHEMBL1156786, “Conformationally constrained mimetics of laminin peptide YIGSR as precursors for antimetastatic disintegrins” (J Med Chem, 2009) are Activity values, retold here.

Where a SMILES comes first, the peptide text is derived from it.

Holding throughout (type): cell-based
Assay [1] has as its target Small ribosomal subunit protein uS2 (Homo sapiens) (UniProt P08865). Nature of the assay: Binding affinity to LAMR1 in human HT1080 cells assessed as maximal cell attachment to compound coated plates after 3 hrs by hemocytometer. To be noted: HT-1080.
The target is the same in assay [2]. Nature of the assay: Binding affinity to LAMR1 in human HeLa cells assessed as maximal cell attachment to compound coated plates after 3 hrs by hemocytometer.
Assay [3] deals with Small ribosomal subunit protein uS2 (Mus musculus) (UniProt P14206). Nature of the assay: Binding affinity to LAMR1 in mouse B16-F10 cells assessed as maximal cell attachment to compound coated plates after 3 hrs by hemocytometer.
Assay [4] deals with Small ribosomal subunit protein uS2 (Homo sapiens) (UniProt P08865). Nature of the assay: Binding affinity to LAMR1 in human HT1080 cells assessed as maximal cell attachment to compound coated plates at 0.2 ug/well after 3 hrs by hemocytometer. The settings on record: HT-1080.
Assay [5] shares this target. Nature of the assay: Binding affinity to LAMR1 in human HT1080 cells assessed as maximal cell attachment to compound coated plates at 20 ug/well after 3 hrs by hemocytometer. To be noted: HT-1080.

Consider `CC[C@H](C)[C@@H]1NC(=O)[C@H](Cc2ccc(O)cc2)NC(=O)CNC(=O)[C@@H]2CCCN2C(=O)[C@H](CC(=O)O)NC(=O)[C@H](CCCNC(=N)N)NC(=O)[C@H](CO)NC(=O)CNC1=O` (cyclo(DPGYIGSR)), for which the Activity in assay [1] came to 67%; in assay [2], 40%; in assay [3], 62%.
Regarding `CC[C@H](C)[C@@H]1NC(=O)[C@H](Cc2ccc(O)cc2)NC(=O)[C@H](CC(N)=O)NC(=O)[C@H](CCCNC(=N)N)NC(=O)[C@H](CO)NC(=O)CNC1=O` (cyclo(GSRNYI)), the Activity in assay [1] was 56%; in assay [2], 32%.
On to `CC[C@H](C)[C@@H]1NC(=O)[C@H](Cc2ccc(O)cc2)NC(=O)[C@H]2CCCN2C(=O)[C@H](CCCNC(=N)N)NC(=O)[C@H](CO)NC(=O)[C@@H](CO)NC1=O`, for which, in assay [1], the Activity turned out to be 76%.
In the case of `CC[C@H](C)[C@@H]1NC(=O)[C@H](Cc2ccc(O)cc2)NC(=O)CNC(=O)[C@@H]2CCCN2C(=O)[C@H](CC(=O)O)NC(=O)[C@H](CCCNC(=N)N)NC(=O)[C@H](CO)NC(=O)[C@@H](CO)NC1=O`, in assay [1], the Activity worked out at 75%.
In the case of `CC[C@H](C)[C@@H]1NC(=O)[C@H](Cc2ccc(O)cc2)NC(=O)CNC(=O)[C@H](CCCNC(=N)N)NC(=O)[C@H](CO)NC(=O)[C@@H](CO)NC1=O`, the Activity was found to be 72% in assay [1], 45% in assay [2] and 68% in assay [3].
`CC[C@H](C)[C@@H]1NC(=O)[C@H](Cc2ccc(O)cc2)NC(=O)[C@H](CC(N)=O)NC(=O)[C@H](CCCNC(=N)N)NC(=O)[C@H](CO)NC(=O)[C@@H]2CCCN2C(=O)[C@H]([C@@H](C)CC)NC(=O)[C@H](Cc2ccc(O)cc2)NC(=O)[C@H](CC(N)=O)NC(=O)[C@H](CCCNC(=N)N)NC(=O)[C@H](CO)NC(=O)[C@@H]2CCCN2C1=O` (cyclo(IPSRNYIPSRNY)): in assay [1], the Activity turned out to be 57%.
Still for that read-out and setting: the result for `CC[C@H](C)[C@@H]1NC(=O)[C@H](Cc2ccc(O)cc2)NC(=O)[C@H](CC(N)=O)NC(=O)[C@H](CCCNC(=N)N)NC(=O)[C@H](CO)NC(=O)[C@@H](CO)NC(=O)[C@H]([C@@H](C)CC)NC(=O)[C@H](Cc2ccc(O)cc2)NC(=O)[C@H](CC(N)=O)NC(=O)[C@H](CCCNC(=N)N)NC(=O)[C@H](CO)NC(=O)[C@@H](CO)NC1=O` reads 48%; that for `CC[C@H](C)[C@@H]1NC(=O)[C@H](Cc2ccc(O)cc2)NC(=O)CNC(=O)[C@@H]2CCCN2C(=O)[C@H](CC(=O)O)NC(=O)[C@H](CCCNC(=N)N)NC(=O)[C@H](CO)NC(=O)[C@@H](CCC(=O)O)NC1=O`, 62%.
The same measure, in the same setting: in the case of `CC[C@H](C)[C@@H]1NC(=O)[C@H](Cc2ccc(O)cc2)NC(=O)CNC(=O)[C@@H]2CCCN2C(=O)[C@H](CC(=O)O)NC(=O)[C@H](CCCNC(=N)N)NC(=O)[C@H](CO)NC(=O)[C@@H](CCCCN)NC1=O` it was 45%.
As to `CC[C@H](C)[C@H](NC(=O)[C@@H](N)Cc1ccc(O)cc1)C(=O)NCC(=O)N[C@@H](CO)C(=O)N[C@@H](CCCNC(=N)N)C(=O)N[C@H](C)C(=O)N[C@H](CCSC)C(=O)O`, the Activity in assay [1] was 53%; in assay [2] it was 31%.
Consider `CC[C@H](C)[C@@H]1NC(=O)[C@H](Cc2ccc(O)cc2)NC(=O)[C@H](CC(N)=O)NC(=O)[C@H](CCCNC(=N)N)NC(=O)[C@H](CO)NC(=O)[C@@H](CO)NC1=O`, for which the Activity was 20% in assay [4]; 81% in assay [1]; 46% in assay [2]; 40% in assay [5]; 45% in assay [3].
For `CC[C@H](C)[C@@H]1NC(=O)[C@H](Cc2ccc(O)cc2)NC(=O)[C@H](CC(N)=O)NC(=O)[C@H](CCCNC(=N)N)NC(=O)[C@H](CO)NC(=O)[C@@H](CCC(=O)O)NC1=O`, the Activity is 76% in assay [1], 43% in assay [2] and 58% in assay [3].
For the molecule `CC[C@H](C)[C@@H]1NC(=O)[C@H](Cc2ccc(O)cc2)NC(=O)[C@H](CC(N)=O)NC(=O)[C@H](CCCNC(=N)N)NC(=O)[C@H](CO)NC(=O)[C@@H]2CCCN2C1=O` (cyclo(IPSRNY)), the figures for the Activity in assay [1] and in assay [2] were 53% and 32%, respectively.
The like results for `CC[C@H](C)[C@@H]1NC(=O)[C@H](Cc2ccc(O)cc2)NC(=O)[C@H](CC(N)=O)NC(=O)[C@H](CCCNC(=N)N)NC(=O)[C@H](CO)NC(=O)[C@@H](CCCCN)NC1=O` were, in that order, 64% and 29%.
